Reference: PMC3514216, “SRC Homology 2 Domain Binding Sites in Insulin, IGF-1 and FGF receptor mediated signaling networks reveal an extensive potential interactome” (Cell Communication and Signaling : CCS, 2012)

System: panel of 50 SH2 domains
Experiment: SPOT peptide array probed with each of 50 GST-SH2 domains
Assay type: binding
Conditions: for SH2 Domains >3X / 2X < SH2 Domains < 3X: SPOT192 peptide array; for SH2 Domains >3X: list of GST-SH2 domains with spot intensity >3X array mean (array-positive); for 2X < SH2 Domains < 3X: list of GST-SH2 domains with spot intensity between 2X and 3X array mean (indeterminate range)
Description: The use of addressable peptide arrays is a reproducible and semi-quantitative approach that has been extensively validated for studying protein interactions with peptide ligands. To investigate connections between SH2 domain proteins and their putative phosphorylated docking sites on cell surface receptors, we developed addressable arrays consisting of 192 phosphotyrosine peptides. This peptide set was assembled using 71 phosphotyrosine peptide motifs corresponding to all of the cytoplasmic tyrosine residues within the FGF receptors (FGFR1-4), insulin receptor (InsR) and IGF-1 receptor (IGF-1R) (Figure 1A). Activation of these receptors results in the phosphorylation of associated scaffold proteins, and so 75 phosphotyrosine peptides corresponding to a comprehensive list of tyrosine residues within insulin receptor substrates (IRS-1 and IRS-2) and fibroblast receptor substrates (FRS-2 and FRS-3) were included. In addition, 33 phosphotyrosine peptides were incorporated from the downstream signaling proteins PLC-γ1, p130Cas (BCAR1) and p62DOK1. […] These control peptides provide a reference and establish the empirical cut-off for designated binding interactions (Table 1). No discrimination was made against peptides on the basis of reported phosphorylation state in order to examine a diverse and unbiased set of motifs. The resulting set of 192 phosphotyrosine peptides and their corresponding position in the proteins of origin is noted in Additional file 1: Table S1. Addressable arrays were synthesized as membrane-bound 11-mer peptides using the SPOT synthesis technique. While the majority of SH2 domains recognize residues C-terminal to the phosphotyrosine in their cognate peptide ligands, additional contacts between SH2 domains and residues N-terminal to the phosphotyrosine are observed for the SH2 domain of Sh2d1a (SAP) and cannot be ruled out in other cases. Peptides were synthesized with six flanking residues C-terminal to the phosphotyrosine and four residues N-terminal to the phosphotyrosine.
To assess the potential network of SH2 domain interactions we selected 50 SH2 domains representing 28 of the 38 families of SH2 domains (Figure 1B) all of which we have previously shown can be expressed and purified. These include a number of extensively studied SH2 domains (Src, Grb2, PLCγ), as well as a number of less studied SH2 domains from proteins such as Shd, She, Shf, Slnk (Sh2d6), Sh2d1a (SAP), Sh2d1b (Eat-2), and Brdg1. To address potential variability in specificity within families we employed all members from the SHB, CRK, GRB2, SRC and ABL families (families are indicated with complete Capitalized lettering).
SH2 domains were arrayed as GST fusion proteins and detected using anti-GST primary antibodies and near-infrared labeled secondary antibodies. In an effort to present a dataset with minimal false positives, we chose an empirical cutoff based on the array average across all peptide spots to classify interactions (Figure 1A). In cases where the intensity of the signal for an individual SH2-domain binding event exceeded the mean intensity of all the peptides on the membrane by three-fold were scored as “array positives” [22]. Non-binding was judged in cases where the intensity of a spot was less than the mean intensity of all spots on the membrane and these were scored as “array negatives”. Peptides with signal intensities between 1X and 3X mean were scored as “indeterminate” and ascribed as neither array positive binding interactions nor array-negative non-binders. […] This signature may be indicative of promiscuity differences between phosphopeptides or there may be a subset of peptides which interact in a nonspecific fashion with either the GST fusion tag or one of the antibodies used for detection, resulting in false positives. […]

| Substance | SH2 Domains >3X | 2X < SH2 Domains < 3X | Other SH2 domains bound (additional array-positive SH2 domains) (SH2 domains with intensity >3X array mean, GST-SH2 0.25 μM, 1 mM DTT) |
| --- | --- | --- | --- |
| SPGEpYVNIEFG [C16] | BLK, BMX, DAPP1, FGR, GADS, GRAP, GRB2, GRB7, ITK, MIST, PI3K1_N, PI3K1_C, PLCG2_C, PTPN11_N, PTPN11_C, RASA1_N, RASA1_C, Sh2b, SH2D2A, SHB, SHF, SHD, SHE, SYK_C, VAV1, YES | ABL1, ABL2, BRK, FYN, HCK, LCK, LYN, SH2D1B, SRC, TENC1 |  |
| RKVGpYLRKPKS [B18] | BCAR3, BMX, BRDG1, BRK, FER, PI3K1_N, RIN1, TENC1 | MATK, MIST, PLCG2_N, PTPN11_C, SHB, SHF, SHD |  |
| DLKSpYLRSLRP [A22] | BCAR3, BMX, BRDG1, FER, MIST, PLCG2_N, Sh2b, SHB, SHF, TENC1 | BRK, ITK, MATK, PLCG2_C, PTPN11_C, RIN1, SHD, SYK_C |  |
| LIGIpYRLCLTS [B24] |  | BCAR3, BRDG1, MIST, SHD |  |
| LEYCpYNPSHNP [E10] | GRB7 |  |  |
| IGSIpYLFLRKR [A17] | BCAR3, BMX, BRDG1, BRK, DAPP1, FER, MATK, MIST, PI3K1_N, PLCG2_N, PTPN11_N, PTPN11_C, RASA1_C, RIN1, Sh2b, SHB, SHF, SHD, TENC1 | FGR, GRB2, PI3K1_C, PLCG2_C, SH3BP2, SHE, SYK_C |  |
| VFTTpYSDVWSF [B13] | ABL1, ABL2, BRK, ITK, RASA1_N, RASA1_C, RIN1, SH2D1B, SH2D2A, SHC1 | BCAR3, CRK, NCK1, PI3K1_N, SHIP1 |  |
| WYPHpYFVLTSS [G24] | ABL2, CRK, CRKL, ITK, MATK, MIST, PI3K1_C, PTPN11_C, SH2D1B, SHD, SHIP1, ZAP70_N | BCAR3, GRB7, SHC1 |  |
| VSEEpYLDLRLT [F18] | BMX, RASA1_N, SHB, SHD |  |  |
| EDPIpYDEPEGL [H19] | ABL1, BLK, HCK, NCK1, SHC1, SLNK, SRC | BMX, LCK, LYN, YES |  |
| YELPpYNPATDD [H22] | SLNK |  |  |
| HHIDpYYKKTSN [F16] | BCAR3, BMX, BRDG1, FER, PLCG2_N, PTPN11_C, SHF, TENC1 | DAPP1, ITK, MATK, MIST, PI3K1_N, PLCG2_C, PTPN11_N, RIN1, SH3BP2, SHB, SHD, SHIP1 |  |
| YWDLpYEHAQQQ [H18] | ABL1, BCAR3, BMX, FER, ITK, MATK, RASA1_N, RASA1_C, SH3BP2, SHB, TENC1 | CRKL |  |
| STVEpYSTVVHS [A11] | BRDG1, BRK, CRK, PTPN11_N, PTPN11_C, SH2D1B, SHC1, SHIP1 | ABL2, RIN1 |  |
| WRGDpYGGKKQL [H04] | BCAR3, BRDG1, BRK, DAPP1, FER, MIST, RIN1, TENC1 | BMX, ITK, PLCG2_N, Sh2b, SH3BP2, SHF, SHD, SYK_C |  |
| YETDpYYRKGGK [B01] | BCAR3, BMX, BRDG1, BRK, ITK, PLCG2_N, RIN1, TENC1 | FER, MIST, PTPN11_C, SH2D2A, SHB, SHF, SHD, SHE, SYK_C |  |
| DSDQpYVLMSSP [D23] | FYN, LYN, PI3K1_N, PI3K1_C, SHIP1 | BLK, FGR, LCK, SH2D1B |  |
| VNPEpYFSAADV [B12] |  | Sh2b |  |
| LTGVpYRLCLSA [D08] |  | BCAR3, BRDG1, MIST, TENC1 |  |
| EDDGpYDVPKPP [A03] | CRK, CRKL, FGR, HCK, SHIP1, SRC, YES | ABL1, BLK, FYN, LYN |  |

| Substance | SH2 Domains >3X | 2X < SH2 Domains < 3X | Other SH2 domains bound (additional array-positive SH2 domains) (SH2 domains with intensity >3X array mean, GST-SH2 0.25 μM, 1 mM DTT) |
| --- | --- | --- | --- |
| HIDYpYKKTTNG [E14] | BCAR3, BMX, BRDG1, CRK, FER, MIST, PTPN11_C, SHF, TENC1 | CRKL, ITK, PLCG2_N, PLCG2_C, PTPN11_N, RIN1, SH3BP2, SHB, SHD, SYK_C, ZAP70_N |  |
| WDTGpYDSDERR [G03] | SH3BP2, SRC | DAPP1, FER, HCK, ZAP70_N |  |
| ARLEpYYENEKK [B19] | GRB7, MIST, SH3BP2 | SH2D2A, SHF, SHD |  |
| CTGDpYMNMSPV [C09] |  | PI3K1_C |  |
| PRQSpYVDTSPA [C20] | PI3K1_C |  |  |
| GDITpYGQFAQL [G17] |  | GRB7 |  |
| EFYGpYMTMDRP [D11] | PI3K1_C |  |  |
| AYHPpYPEDYGD [D16] | BMX | MATK, SLNK |  |
| ETDYpYRKGGKG [B02] | BCAR3, BRDG1, BRK, TENC1 | BMX, MIST, PLCG2_N, RIN1, SHF, SYK_C |  |
| SLTIpYAQVQKA [A08] | BCAR3, BMX, BRDG1, FER, MATK, SH2D1B, TENC1 | MIST, PI3K1_N, PTPN11_N, PTPN11_C, RIN1, Sh2b, SHC1, SHD, SYK_C |  |
| AACDpYESCATA [A01] | PI3K1_C | CRKL, HCK |  |
| ADDGpYMPMTPG [D18] | HCK, SRC | PI3K1_C |  |
| SLDEpYTLMRAT [D14] |  | PI3K1_C |  |
| HHIDpYYKKTTN [E13] | BCAR3, BMX, BRDG1, FER, MIST, PLCG2_N, PTPN11_C, SHB, SHF, TENC1 | DAPP1, ITK, MATK, PI3K1_N, PTPN11_N, RIN1, SH3BP2, SHD, SHE, SHIP1, SYK_C |  |
| PQGLpYDLPREP [H20] | ABL1, CRK, CRKL, NCK1, ZAP70_N | HCK |  |
| TNELpYMMMRDS [E17] |  | PI3K1_C |  |
| TFGPpYSPSGGD [F19] |  | ZAP70_N |  |
| TKDEpYFAVAAE [D04] |  | SH2D1B |  |
| EHIPpYTHMNGG [B06] |  | PI3K1_C |  |
| EQDEpYDIPRHL [H10] | BRK, CRK, CRKL, FGR, FYN, LCK, LYN, RIN1, SHC1, YES | ABL1, BLK, HCK, PI3K1_N, SH2D1B, SHIP1, SRC |  |

| Substance | SH2 Domains >3X | 2X < SH2 Domains < 3X | Other SH2 domains bound (additional array-positive SH2 domains) (SH2 domains with intensity >3X array mean, GST-SH2 0.25 μM, 1 mM DTT) |
| --- | --- | --- | --- |
| NPGFpYVEANPM [H03] | ZAP70_N | PI3K1_C |  |
| GYPRpYPSFGDA [G01] |  | ZAP70_N |  |
| ATDLpYQVPPGP [H08] | CRK | CRKL |  |
| DPNGpYMMMSPS [C07] | PI3K1_C |  |  |
| SQVNpYRVPNMR [G16] | BCAR3, BRDG1, MIST, PLCG2_N, SHF, TENC1 | BMX, CRKL, PLCG2_C |  |
| GGPLpYVLVEYA [F07] | MIST, RASA1_N, SHE, SYK_C, ZAP70_N | ITK, SHD |  |
| PNGDpYLNVSPS [D21] | GADS, GRAP, GRB2, GRB7, VAV1 | HCK, PI3K1_N, SH2D1B, SHIP1 |  |
| PPALpYAEPLDS [11-mer phosphotyrosine peptide, p62DOK1 (Y296)] |  |  | Abl1, Nck1, Vav1, Zap70_N |
| PVLSpYYSLPRS [C12] | CRK, CRKL, Sh2b, SYK_C | BRDG1, SHF |  |
| PQDIpYDVPPVR [H11] | CRK, CRKL, NCK1, SHIP1, ZAP70_N | FGR, FYN, LCK, LYN |  |
| QDSWpYQALLQL [B22] | ABL2, BCAR3, CRK, MATK, SH2D2A, SYK_C, TENC1, VAV1 | BMX, GADS, RIN1, Sh2b, SHD |  |
| SLDEpYGSSPGD [D09] | SLNK | BLK, LCK |  |
| VKWHpYLALRRY [F21] | BCAR3, BMX, BRDG1, BRK, DAPP1, FER, GRB2, MATK, MIST, PI3K1_N, PI3K1_C, PLCG2_N, PLCG2_C, PTPN11_N, PTPN11_C, RIN1, Sh2b, SH3BP2, SHB, SHF, SHD, TENC1 | FGR, ITK, RASA1_C, SH2D2A, SHE, SYK_C |  |
| RQLNpYIQVDLE [G09] | BCAR3, BMX, BRDG1, DAPP1, ITK, MIST, PLCG2_C, PTPN11_N, RASA1_N, SHB, SHF, SHD, SHE, SYK_C, VAV1, ZAP70_N | PTPN11_C, Sh2b |  |
| AEPQpYEEIPIY [A10] | BLK, BRK, FER, FGR, HCK, LYN, NCK1, PLCG2_C, SHC1, SRC, YES | ABL1, BMX, DAPP1, FYN, LCK, RIN1, SH2D1B, SRC |  |
| ELILpYTRKRDS [F20] | BCAR3, BRDG1, MIST, PLCG2_N, SHF, TENC1 | BMX, DAPP1, PLCG2_C, PTPN11_C, RASA1_C, SHB, SHD |  |
| PPALpYAEPLDS [H15] | ABL1, ITK, NCK1, RASA1_N, RASA1_C, VAV1, ZAP70_N | ABL2 |  |
| QQGLpYQVPGPS [H07] | CRK, CRKL |  |  |
| EGSApYEEVPTS [G20] | BRK, FGR, LYN, NCK1, SH2D1B, SHC1, YES | BLK, FER, FYN, HCK, GRB7, LCK |  |
